Structures can show the parent of a compound that is named as a salt. Where two headings read alike, the source gives them in different places.

In US11440923B2, “Substituted macrocyclic indole derivatives” (Bayer Aktiengesellschaft, priority 2017, dated 2022) one finds IC50 data, which are given here for eleven molecules.

One test relates to AMO-1 cells. The experiment in a line: Antiproliferation assay AMO-1 (Assay 7). The class given is cell-based. An outline of the steps:
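Anti-proliferative effect was measured by CellTiter-Glo ATP luminescence after 72 h compound exposure at 37° C, following overnight plating. IC50s were derived using a parallel time-zero plate and DMSO-treated controls as reference points.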

The target of test [1] is MCL1 protein / biotinylated BIM BH3 peptide in RKO cells (Homo sapiens (Human), UniProt Q07820). The experiment in a line: PIxEL: protein-protein interaction in permeabilized cells by ELISA (Assay 5). Format: cell-based. The settings on record: PIxEL IC50 (median). An outline of the steps: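 Digitonin (0.002%)-permeabilized RKO cells in MEB buffer pH 7.5 were treated with compound (3-fold series, top 30 μM) plus 0.2 μM biotin-BIM BH3 peptide for 1 h at room temperature. Lysates were captured on anti-MCL1 ELISA plates and bound peptide read by streptavidin-HRP luminescence. IC50 came from signal normalized to no-compound and no-cell controls.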

[2] abbreviates: read-out: Antiproli AMO-1 IC50 median, 72 h, CellTiter-Glo.
Setting [3] is: 72 h, CellTiter-Glo, read-out: Antiproli AMO-1 IC50 median.

Sequence of MCL1 protein / biotinylated BIM BH3 peptide in RKO cells (Q07820 whole entry): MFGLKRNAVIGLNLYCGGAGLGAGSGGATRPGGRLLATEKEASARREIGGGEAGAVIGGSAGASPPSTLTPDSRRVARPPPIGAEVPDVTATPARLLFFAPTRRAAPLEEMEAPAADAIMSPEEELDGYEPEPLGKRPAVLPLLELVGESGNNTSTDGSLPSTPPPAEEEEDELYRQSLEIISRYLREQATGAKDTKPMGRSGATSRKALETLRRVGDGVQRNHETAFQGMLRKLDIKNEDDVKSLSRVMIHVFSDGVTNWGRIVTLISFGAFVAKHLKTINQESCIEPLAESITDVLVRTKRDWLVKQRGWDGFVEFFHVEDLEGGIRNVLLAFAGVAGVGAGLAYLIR

Consider `CCc1c2c(nn1C)C(C1CC1)OCCCCn1c(C(=O)O)c(CCCOc3cccc4cc(F)ccc34)c3ccc(Cl)c-2c31` (single isomer, unassigned; enantiomer 1) [Example 39, (+)-4-chloro-15-cyclopropyl-3-ethyl-7-{3-[(6-fluoronaphthalen-1-yl)oxy]propyl}-2-methyl-2,10,11,12,13,15-hexahydropyrazolo[4′,3′:9,10][1,6]oxazacycloundecino[8,7,6-hi]indole-8-carboxylic Acid—N-ethylethanamine Salt (Enantiomer 1)], for which the IC50 in the test with AMO-1 cells (Homo sapiens, AMO1, 72 h, read-out: Antiproli AMO-1 IC50 median, 72 h, CellTiter-Glo) came to 4940 nM; in test [1], 317 nM.

As for `CCc1c2c(nn1C)C(CCOC)OCCCCn1c(C(=O)O)c(CCCOc3cccc4cc(F)ccc34)c3ccc(Cl)c-2c31` (single isomer, unassigned; enantiomer 1) [Example 42, (+)-4-chloro-3-ethyl-7-{3-[(6-fluoronaphthalen-1-yl)oxy]propyl}-15-(2-methoxyethyl)-2-methyl-2,10,11,12,13,15-hexahydropyrazolo[4′,3′:9,10][1,6]oxazacycloundecino[8,7,6-hi]indole-8-carboxylic Acid—N-ethylethanamine Salt (Enantiomer 1)], the IC50 with AMO-1 cells (setting [2]) amounted to 96.9 nM; in test [1], 45.1 nM.

Regarding `CCc1c2c(nn1C)C(CCO)OCCCCn1c(C(=O)O)c(CCCOc3cccc4cc(F)ccc34)c3ccc(Cl)c-2c31` (single isomer, unassigned; enantiomer 1) [Example 45, (+)-4-chloro-3-ethyl-7-{3-[(6-fluoronaphthalen-1-yl)oxy]propyl}-15-(2-hydroxyethyl)-2-methyl-2,10,11,12,13,15-hexahydropyrazolo[4′,3′:9,10][1,6]oxazacycloundecino[8,7,6-hi]indole-8-carboxylic Acid (Enantiomer 1)], the IC50 in the test with AMO-1 cells (setting [3]) was found to be 185 nM; in test [1], 155 nM.

For the molecule `CCc1c2c(nn1C)C(CCN1CCOCC1)OCCCCn1c(C(=O)O)c(CCCOc3cccc4cc(F)ccc34)c3ccc(F)c-2c31` (single isomer, unassigned; enantiomer 1) [Example 50, (+)-3-ethyl-4-fluoro-7-{3-[(6-fluoronaphthalen-1-yl)oxy]propyl}-2-methyl-15-[2-(morpholin-4-yl)ethyl]-2,10,11,12,13,15-hexahydropyrazolo[4′,3′:9,10][1,6]oxazacycloundecino[8,7,6-hi]indole-8-carboxylic Acid (Enantiomer 1)], the IC50 in the test with AMO-1 cells (setting [3]) stood at 65.4 nM; in test [1], 36.8 nM.

For the molecule `CCc1c2c(nn1C)C(CC(C)(C)O)OCCCCn1c(C(=O)O)c(CCCOc3cccc4cc(F)ccc34)c3ccc(Cl)c-2c31` (single isomer, unassigned; enantiomer 1) [Example 53, (+)-4-chloro-3-ethyl-7-{3-[(6-fluoronaphthalen-1-yl)oxy]propyl}-15-(2-hydroxy-2-methylpropyl)-2-methyl-2,10,11,12,13,15-hexahydropyrazolo[4′,3′:9,10][1,6]oxazacycloundecino[8,7,6-hi]indole-8-carboxylic Acid—N-ethylethanamine Salt (Enantiomer 1)], the IC50 was 185 nM in the test on AMO-1 cells (setting [2]) and 135 nM in test [1].

In the case of `CCc1c2c(nn1C)C(CCC1CCOCC1)OCCCCn1c(C(=O)O)c(CCCOc3cccc4cc(F)ccc34)c3ccc(Cl)c-2c31` (single isomer, unassigned; enantiomer 1) [Example 63, (+)-4-chloro-3-ethyl-7-{3-[(6-fluoronaphthalen-1-yl)oxy]propyl}-2-methyl-15-[2-(oxan-4-yl)ethyl]-2,10,11,12,13,15-hexahydropyrazolo[4′,3′:9,10][1,6]oxazacycloundecino[8,7,6-hi]indole-8-carboxylic Acid—N-ethylethanamine Salt (Enantiomer 1)], the IC50 amounted to 20 nM in the test with AMO-1 cells (setting [2]) and 14.2 nM in test [1].

Regarding `CCc1c2c(nn1C)C(CCC(C)(C)O)OCCCCn1c(C(=O)O)c(CCCOc3cccc4cc(F)ccc34)c3ccc(Cl)c-2c31` (single isomer, unassigned; enantiomer 1) [Example 75, (+)-4-chloro-3-ethyl-7-{3-[(6-fluoronaphthalen-1-yl)oxy]propyl}-15-(3-hydroxy-3-methylbutyl)-2-methyl-2,10,11,12,13,15-hexahydropyrazolo[4′,3′:9,10][1,6]oxazacycloundecino[8,7,6-hi]indole-8-carboxylic Acid—N-ethylethanamine Salt (Enantiomer 1)], the IC50 in the test with AMO-1 cells (setting [3]) came to 13.8 nM; in test [1], 27.5 nM.

As to `CCc1c2c(nn1C)C(CCN1CCOCC1)OCCCCn1c(C(=O)O)c(CCCOc3cccc4ccccc34)c3ccc(F)c-2c31` (single isomer, unassigned; enantiomer 2) [Example 12, 3-ethyl-4-fluoro-2-methyl-15-[2-(morpholin-4-yl)ethyl]-7-{3-[(naphthalen-1-yl)oxy]propyl}-2,10,11,12,13,15-hexahydropyrazolo[4′,3′:9,10][1,6]oxazacycloundecino[8,7,6-hi]indole-8-carboxylic Acid—N-ethylethanamine Salt (Enantiomer 2)], the IC50 with AMO-1 cells (setting [2]) was 12100 nM; in test [1], 19400 nM.

In the case of `Cc1c2c(nn1C)C(CCN1CCOCC1)OCCCCn1c(C(=O)O)c(CCCOc3cccc4ccccc34)c3ccc(Cl)c-2c31` (single isomer, unassigned; enantiomer 2) [Example 15, 4-chloro-2,3-dimethyl-15-[2-(morpholin-4-yl)ethyl]-7-{3-[(naphthalen-1-yl)oxy]propyl}-2,10,11,12,13,15-hexahydropyrazolo[4′,3′:9,10][1,6]oxazacycloundecino[8,7,6-hi]indole-8-carboxylic Acid (Enantiomer 2)], the IC50 with AMO-1 cells (setting [3]) worked out at 10500 nM; in test [1], 12500 nM.

Turning to `Cc1c2c(nn1C)C(CCN1CCOCC1)OCCCCn1c(C(=O)O)c(CCCOc3cccc4cc(F)ccc34)c3ccc(Cl)c-2c31` (single isomer, unassigned; enantiomer 2) [Example 18, 4-chloro-7-{3-[(6-fluoronaphthalen-1-yl)oxy]propyl}-2,3-dimethyl-15-[2-(morpholin-4-yl)ethyl]-2,10,11,12,13,15-hexahydropyrazolo[4′,3′:9,10][1,6]oxazacycloundecino[8,7,6-hi]indole-8-carboxylic Acid (Enantiomer 2)], the IC50 stood at 2370 nM in the test on AMO-1 cells (Homo sapiens, AMO1, 72 h, 72 h, CellTiter-Glo, read-out: Antiproli AMO-1 IC50 median) and 2430 nM in test [1].

Regarding `CCc1c2c(nn1C)C(CCN1CCOCC1)OCCCCn1c(C(=O)O)c(CCCOc3cccc4cc(F)ccc34)c3ccc(F)c-2c31` (single isomer, unassigned; enantiomer 2) [Example 51, (−)-3-ethyl-4-fluoro-7-{3-[(6-fluoronaphthalen-1-yl)oxy]propyl}-2-methyl-15-[2-(morpholin-4-yl)ethyl]-2,10,11,12,13,15-hexahydropyrazolo[4′,3′:9,10][1,6]oxazacycloundecino[8,7,6-hi]indole-8-carboxylic Acid (Enantiomer 2)], the results for the IC50 (with AMO-1 cells (setting [3]); in test [1]) were 10800 nM and 12000 nM, respectively.
